Measured values reported in patent US20250129048A1, “MELANOCORTIN 4 RECEPTOR ANTAGONISTS AND USES THEREOF” (Pfizer Inc., priority 2021, published 2025).

Target: hMC4R (Homo sapiens (Human), UniProt P32245)
Assay: In vitro binding affinity assay using hMC4R (radioligand competition binding, CHO cell membranes)
Settings: competition with [125I]-(Nle4, D-Phe7)-α-MSH 0.5 nM; Ki from IC50 by Cheng-Prusoff; read-out: Ki (nM) geometric mean
Procedure: The binding affinity of test compounds at the α-melanocyte-stimulating hormone receptor (hMC4R) was assessed using a radioligand competition binding assay. Recombinant Chinese hamster ovaries (CHO) cells stably expressing hMC4R (PerkinElmer #ES-191-C) were used for competitive binding. hMC4R membranes were grown in Dulbecco's Modified Essential Medium and Ham's F-12 Medium (DMEM/F12), 10% heat inactivated fetal bovine serum (FBS), 0.4 mg/mL Geneticin and 2 mM L-glutamine. Cell membranes were bulked and frozen until the assay was performed.
Compounds were solubilized in 100% dimethyl sulfoxide (DMSO) to a concentration of 30 mM. A 10-point intermediate dilution series using half log dilutions was created in 100% DMSO with a top concentration of 0.03 mM. The serially diluted compounds were spotted as 1 μL/well, in 96-well Costar 3363 plates. The final compound range in the assay was 300 nM to 0.01 nM with a final DMSO concentration of 1%. Control wells, containing 1 μL of 2 mM ([…]) alpha-melanocyte stimulating hormone (α-MSH-Tocris #2584) was added to the non-specific binding wells and 1 μL 100% DMSO for the total binding control wells. This was followed by the addition of 80 μL of assay buffer [25 mM HEPES, 5 mM MgCl2, 2.5 mM CaCl2, 150 mM NaCl, Complete EDTA-free Protease Inhibitor Tablet (Thermo Scientific #11873580001) and 0.25% BSA]. […] The exact concentration of radioligand used for each experiment was determined by liquid scintillation counting and adjusted if necessary.
Frozen hMC4R cell membranes were thawed and Dounce homogenized. Homogenates were resuspended in assay buffer to a concentration of 2 μg per well. […] The plates were incubated for 2 hours at room temperature. Assay samples were then rapidly filtered through Unifilter-96 GF/B PEI coated filter plates using a filter plate harvester (PerkinElmer) and rinsed with ice-cold wash buffer [25 mM (4-(2-hydroxyethyl)-1-piperazineethanesulfonic acid (HEPES), 1 mM MgCl2, 2.5 mM CaCl2, and 500 mM NaCl]. Filter plates were dried overnight at room temperature. Plates were then bottom-sealed prior to the addition of 50 μL/well Ultima Gold XR scintillation fluid (PerkinElmer 6013111). Plates were then top-sealed, incubated for 60 minutes at room temperature and then the amount of radioactivity present was determined by liquid scintillation counting on a Microbeta Trilux (PerkinElmer #2450-0060).
The raw data (expressed as counts per minute) were analyzed using ActivityBase (IDBS Data Management Software). […] Equilibrium dissociation constant for inhibitor of ligand and receptor interaction (Ki) values were then calculated from the IC50 values using the Cheng-Prusoff equation: Ki=IC50/(1+([L]/Kd)), where [L] is the concentration of the radioligand used in the experiment and Kd is the affinity of the radioligand (determined in separate saturation experiments).

Chain of hMC4R (P32245 whole entry): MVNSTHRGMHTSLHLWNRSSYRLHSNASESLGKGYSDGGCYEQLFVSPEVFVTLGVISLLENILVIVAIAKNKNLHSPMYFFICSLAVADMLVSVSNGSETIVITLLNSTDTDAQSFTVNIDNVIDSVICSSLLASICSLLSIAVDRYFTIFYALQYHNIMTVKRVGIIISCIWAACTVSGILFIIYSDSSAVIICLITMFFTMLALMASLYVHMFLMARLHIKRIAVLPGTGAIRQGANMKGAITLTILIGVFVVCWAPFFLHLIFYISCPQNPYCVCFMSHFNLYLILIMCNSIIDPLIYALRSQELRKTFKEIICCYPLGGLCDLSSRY

Ki	SMILES
7.7 nM	COc1cc([C@@H](C)C(=O)N2CC[C@H](Nc3ccc(-c4cn(C)c(C(F)F)n4)c(C)n3)C2)cc(OC)n1 (single isomer, unassigned) [Example 12B]
530 nM	COc1cccc([C@@H](C)C(=O)N2CC[C@H](Nc3ccc(-c4cn(C)c(C(C)(F)F)n4)c(C)n3)C2)c1 (single isomer, unassigned) [Example 14A]
150 nM	Cc1ccccc1[C@@H](C)C(=O)N1CC[C@H](Nc2ccc(-c3cn(C)c(C(C)(F)F)n3)c(C)n2)C1 (single isomer, unassigned) [Example 15A]
0.83 nM	Cc1ccccc1[C@@H](C)C(=O)N1CC[C@H](Nc2ccc(-c3cn(C)c(C(C)(F)F)n3)c(C)n2)C1 (single isomer, unassigned) [Example 15B]
> 220 nM	COc1cc([C@@H](C)C(=O)N2CC[C@H](Nc3ccc(-c4cn(C)c(C(C)(F)F)n4)c(C)n3)C2)c(C)cn1 (single isomer, unassigned) [Example 16A]
1100 nM	COc1ccc(C)c([C@@H](C)C(=O)N2CC[C@H](Nc3ccc(-c4cn(C)cn4)c(C)n3)C2)c1 (single isomer, unassigned) [Example 20A]
190 nM	COc1cc([C@@H](C)C(=O)N2CC[C@H](Nc3ccc(-c4cn(C)c(C(C)(F)F)n4)c(C)n3)C2)c(F)cn1 (single isomer, unassigned) [Example 21A]
20 nM	COc1cc([C@@H](C)C(=O)N2CC[C@H](Nc3ccc(-c4nc(C(F)F)n(C)n4)c(C)n3)C2)c(Cl)cn1 (single isomer, unassigned) [Example 24A]
88 nM	COc1cc([C@@H](C)C(=O)N2CC[C@H](Nc3ccc(-c4nc(C(F)(F)F)n(C)n4)c(C)n3)C2)c(Cl)cn1 (single isomer, unassigned) [Example 25A]
1100 nM	COc1cc([C@@H](C)C(=O)N2CC[C@H](Nc3ccc(-c4nc(C(F)F)n(C)n4)c(C)n3)C2)ccn1 (single isomer, unassigned) [Example 33A]
4.3 nM	COc1cc([C@](C)(F)C(=O)N2CC[C@H](Nc3ccc(-c4cn(C)c(C(F)F)n4)c(C)n3)C2)ccn1 (single isomer, unassigned) [Example 36B]
150 nM	COc1cc([C@@H](C)C(=O)N2CC[C@H](Nc3ccc(-c4nc(C(C)(F)F)n(C)n4)c(C)n3)C2)c(Cl)cn1 (single isomer, unassigned) [Example 37A]
62 nM	COc1cc([C@@H](C)C(=O)N2CC[C@H](Nc3ccc(-c4cn(C)c(C(F)F)n4)c(C)n3)C2)c(F)cn1 (single isomer, unassigned) [Example 38A]
54 nM	COc1cc(OC(F)F)cc([C@@H](C)C(=O)N2CC[C@H](Nc3ccc(-c4nc(C(C)(F)F)n(C)n4)c(C)n3)C2)c1 (single isomer, unassigned) [Example 40A]
240 nM	COc1cc([C@@H](C)C(=O)N2CC[C@H](Nc3ccc(-c4nc(C(F)F)n(C)n4)c(C)n3)C2)nc(C)n1 (single isomer, unassigned) [Example 41A]
520 nM	Cc1nc(N[C@@H]2CCN(C(=O)Cc3ccc(F)cc3)C2(C)C)ccc1-c1cn(C)cn1 [Example 3A, 1-[(3R)-2,2-dimethyl-3-{[6-methyl-5-(1-methyl-1H-imidazol-4-yl)pyridin-2-yl]amino}pyrrolidin-1-yl]-2-(4-fluorophenyl)ethan-1-one]
0.46 nM	Cc1nc(N[C@H]2CCN(C(=O)Cc3ccc(OC(F)(F)F)cc3)C2)ccc1-c1cn(C)c(C(F)F)n1 [Example 9, 1-[(3S)-3-({5-[2-(difluoromethyl)-1-methyl-1H-imidazol-4-yl]-6-methylpyridin-2-yl}amino)pyrrolidin-1-yl]-2-[4-(trifluoromethoxy)phenyl]ethan-1-one]
0.31 nM	Cc1nc(N[C@H]2CCN(C(=O)Cc3ccc(F)c(F)c3)C2)ccc1-c1cn(C)c(C(F)F)n1 [Example 10, 1-[(3S)-3-({5-[2-(difluoromethyl)-1-methyl-1H-imidazol-4-yl]-6-methylpyridin-2-yl}amino)pyrrolidin-1-yl]-2-(3,4-difluorophenyl)ethan-1-one]
1.1 nM	Cc1nc(N[C@H]2CCN(C(=O)[C@H](C)c3ccccc3)C2)ccc1-c1cn(C)c(C(F)F)n1 [Example 11, (2R)-1-[(3S)-3-({5-[2-(difluoromethyl)-1-methyl-1H-imidazol-4-yl]-6-methylpyridin-2-yl}amino)pyrrolidin-1-yl]-2-phenylpropan-1-one]
1.1 nM	Cc1nc(N[C@H]2CCN(C(=O)C(F)(F)c3ccc(Cl)cc3)C2)ccc1-c1cn(C)c(C(F)F)n1 [Example 23, 2-(4-chlorophenyl)-1-[(3S)-3-({5-[2-(difluoromethyl)-1-methyl-1H-imidazol-4-yl]-6-methylpyridin-2-yl}amino)pyrrolidin-1-yl]-2,2-difluoroethan-1-one]
950 nM	Cc1nc(N[C@H]2CCN(C(=O)Cc3ccc(F)cc3)C2)ccc1-c1noc(C(F)(F)F)n1 [Example 27, 2-(4-fluorophenyl)-1-[(3S)-3-({6-methyl-5-[5-(trifluoromethyl)-1,2,4-oxadiazol-3-yl]pyridin-2-yl}amino)pyrrolidin-1-yl]ethan-1-one]
6.9 nM	Cc1nc(N[C@H]2CCN(C(=O)Cc3ccc(F)cc3)C2)ccc1-c1nc2n(n1)CC(F)(F)CO2 [Example 29, 1-[(3S)-3-{[5-(6,6-difluoro-6,7-dihydro-5H-[1,2,4]triazolo[5,1-b][1,3]oxazin-2-yl)-6-methylpyridin-2-yl]amino}pyrrolidin-1-yl]-2-(4-fluorophenyl)ethan-1-one]
1 nM	COc1cc(CC(=O)N2CC[C@H](Nc3ccc(-c4cn(C)cn4)c(C)n3)C2)ccc1C [Example 31, 2-(3-methoxy-4-methylphenyl)-1-[(3S)-3-{[6-methyl-5-(1-methyl-1H-imidazol-4-yl)pyridin-2-yl]amino}pyrrolidin-1-yl]ethan-1-one]
5.5 nM	Cc1nc(N[C@H]2CCN(C(=O)Cc3ccc(F)cc3)C2)ccc1-c1cc(C)n(C)n1 [Example 32, 1-[(3S)-3-{[5-(1,5-dimethyl-1H-pyrazol-3-yl)-6-methylpyridin-2-yl]amino}pyrrolidin-1-yl]-2-(4-fluorophenyl)ethan-1-one]
0.88 nM	Cc1nc(N[C@H]2CCN(C(=O)C(F)(F)c3ccc(Cl)c(Cl)c3)C2)ccc1-c1cn(C)c(C(F)F)n1 [Example 34, 2-(3,4-dichlorophenyl)-1-[(3S)-3-({5-[2-(difluoromethyl)-1-methyl-1H-imidazol-4-yl]-6-methylpyridin-2-yl}amino)pyrrolidin-1-yl]-2,2-difluoroethan-1-one]
0.95 nM	Cc1nc(N[C@H]2CCN(C(=O)C3(c4ccccc4)CC3(F)F)C2)ccc1-c1cn(C)cn1 (stereo partly drawn) [Example 35, (2,2-difluoro-1-phenylcyclopropyl)[(3S)-3-{[6-methyl-5-(1-methyl-1H-imidazol-4-yl)pyridin-2-yl]amino}pyrrolidin-1-yl]methanone]
